Source: patent publication US9776967B2, “Carboxamide derivatives as pesticidal compounds” (priority 2013, dated 2017)
Where two headings read alike, the source gives them in different places.

Tests used:
[1] = LogP by HPLC on reversed phase columns (EEC directive 79/831 Annex V.A8); format: physicochemical
Experimental: Calibration was done with straight-chain alkan2-ones (with 3 to 16 carbon atoms) with known Log P values (measurement of Log P values using retention times with linear interpolation between successive alkanones). Lambda-max-values were determined using UV-spectra from 200 nm to 400 nm and the peak values of the chromatographic signals.

Cooperia curticei = test: In vitro assay with Cooperia curticei (COOPCU), larval mortality; details: 120 h, read-out: activity (larval mortality)
Experimental: In Vitro Assay with Cooperia curticei (COOPCU)
(§1) Solvent: Dimethyl Sulfoxide
(§2) To produce a suitable preparation of active compound, 10 mg of active compound are dissolved in 0.5 ml solvent, and the concentrate is diluted with “Ringer's solution” to the desired concentration.
Approximately 40 nematode larvae (Cooperia curticei) are transferred into a test tube containing the compound solution.
After 5 days percentage of larval mortality is recorded. 100% efficacy means all larvae are killed; 0% efficacy means no larvae are killed.

Haemonchus contortus = test: In vitro assay with Haemonchus contortus (HAEMCO), larval mortality; details: 120 h; for mortality at 20 ppm: read-out: activity (larval mortality); for Emax at 0.8 ppm / Emax at 4 ppm / Emax at 20 ppm: HAEMCO, 5dat, comparative example, read-out: % Efficacy
Experimental: In Vitro Assay with Haemonchus contortus (HAEMCO)
as §1, §2
Approximately 40 larvae of the red stomach worm (Haemonchus contortus) are transferred into a test tube containing compound solution.
After 5 days percentage of larval mortality are recorded. 100% efficacy means all larvae are killed, 0% efficacy means no larvae are killed.

Meloidogyne incognita = Meloidogyne incognita (MELGIN) assay, gall formation on salad seedlings; format: in vivo; details: 336 h, after 14 days, read-out: nematicidal activity (percentage of gall formation; 100% = no galls)
Experimental: Meloidogyne incognita (MELGIN) Assay
Solvent: 125.0 parts by weight of acetone
To produce a suitable preparation of active compound, 1 part by weight of active compound is mixed with the stated amount of solvent, and the concentrate is diluted with water to the desired concentration.
Vessels are filled with sand, a solution of the active ingredient, a suspension containing eggs and larvae of the southern root-knot nematode (Meloidogyne incognita) and salad seeds. The salad seeds germinate and the seedlings grow. Galls develop in the roots.
After 14 days the nematicidal activity is determined on the basis of the percentage of gall formation. 100% means no galls were found and 0% means the number of galls found on the roots of the treated plants was equal to that in untreated control plants.

[2] = test system: Nippostrongylus brasiliensis; test: In vitro assay with Nippostrongylus brasiliensis (NIPOBR), acetylcholine esterase readout; details: adult worms, read-out: activity (reduction of AChE compared to negative control); for inhibition at 1 ppm: 1 ppm (1 μg/ml); for inhibition at 10 ppm: 10 ppm (10 μg/ml)
Experimental: In Vitro Assay with Nippostrongylus brasiliensis (NIPOBR)
Adult Nippostrongylus brasiliensis were washed with saline buffer containing 100 U/ml penicillin, 0.1 mg/ml streptomycin and 2.5 μg/ml amphotericin B. Test compounds were dissolved in DMSO and worms were incubated in medium in a final concentration of 10 μg/ml (10 ppm) respectively 1 μg/ml (1 ppm). An aliquot of the medium was used to determine the acetylcholine esterase activity in comparison to a negative control. The principle of measuring acetylcholine esterase as readout for anthelmintic activity was described in Rapson et al (1986) and Rapson et al (1987).

[3] = LC-UV, acidic range, 0.1% formic acid in water and acetonitrile, read-out: logP (HCOOH) [a]

Row | SMILES | chromatographic logP [1, 3] | mortality at 20 ppm (Cooperia curticei) [%] | mortality at 20 ppm (Haemonchus contortus; 20 ppm, after 5 days) [%] | pest or weed control at 20 ppm (Meloidogyne incognita) [%] | chromatographic logP ([1]; logP (HCOOH) [a]) | inhibition at 1 ppm [2] [%] | inhibition at 10 ppm [2] [%] | Emax at 0.8 ppm (Haemonchus contortus) [%] | Emax at 4 ppm (Haemonchus contortus) [%] | Emax at 20 ppm (Haemonchus contortus; 20 ppm) [%] | mortality at 20 ppm (Haemonchus contortus) [%]
1 | COc1ccc(-c2cnc(C(F)(F)CNC(=O)c3ccccc3C(F)(F)F)c(Cl)c2)cc1Cl [Example 6] | 3.94 | 100 | 100 | 90 |  |  |  |  |  |  | 
2 | O=C(NCC(F)(F)c1ncc(-c2ccc(F)cc2)cc1Cl)c1ccccc1C(F)(F)F [Example 24] |  | 100 |  | 100 | 3.74 | ≥ 60 | ≥ 60 | 100 | 100 | 100 | 100
3 | O=C(NCC(F)(F)c1ncc(-c2ccc(F)c(F)c2)cc1Cl)c1ccccc1C(F)(F)F [Example 14] |  | 100 |  | 100 | 3.84 | ≥ 60 | ≥ 60 |  |  |  | 100
4 | COc1ccc(-c2cnc(C(F)(F)CNC(=O)c3ccccc3C(F)(F)F)c(Cl)c2)cc1 [Example 7] | 3.68 | 100 | 100 | 100 |  | ≥ 60 | ≥ 60 |  |  |  | 
5 | O=C(NCCc1ncc(-c2ccc(Cl)cc2)cc1Cl)c1ccccc1C(F)(F)F [Example 1, N-{2-[3-chloro-5-(4-chlorophenyl)pyridin-2-yl]ethyl}-2-(trifluoromethyl)benzamide] | 3.97 | 100 | 100 | 100 |  | ≥ 60 | ≥ 60 | 100 | 100 | 100 | 
6 | O=C(NCC(F)(F)c1ncc(-c2cc(Cl)cc(Cl)c2)cc1Cl)c1ccccc1C(F)(F)F [Example 11] |  | 100 |  | 90 | 4.64 | ≥ 60 | ≥ 60 |  |  |  | 100
7 | O=C(NCC(F)(F)c1ncc(-c2ccc(Cl)cc2)cc1Cl)c1ccccc1C(F)(F)F [Example 2, N-{2-[3-chloro-5-(4-chlorophenyl)pyridin-2-yl]-2,2-difluoroethyl}-2-(trifluoromethyl)-benzamide] | 4.17 | 100 | 100 |  |  | ≥ 60 |  |  |  |  | 
8 | O=C(NCC(F)(F)c1ncc(-c2ccc3c(c2)OCO3)cc1Cl)c1ccccc1C(F)(F)F [Example 8] |  | 100 |  | 100 | 3.53 | ≥ 60 | ≥ 60 |  |  |  | 100
9 | O=C(NCC(F)(F)c1ncc(-c2ccc(F)cc2)cc1Cl)c1nccnc1C(F)(F)F [Example 19] | 3.51 | 100 | 100 | 90 |  |  |  |  |  |  | 
10 | O=C(NCC(F)(F)c1ncc(-c2ccc(Cl)cc2Cl)cc1Cl)c1ccccc1C(F)(F)F [Example 15] |  | 100 |  | 90 | 4.57 | ≥ 60 | ≥ 60 |  |  |  | 100
11 | O=C(NCC(F)(F)c1ncc(-c2ccc(F)cc2)cc1Cl)c1cccnc1C(F)(F)F [Example 26] | 3.29 |  |  | 100 |  |  |  |  |  |  | 
12 | Cc1ccccc1-c1cnc(C(F)(F)CNC(=O)c2ccccc2C(F)(F)F)c(Cl)c1 [Example 9] | 4 | 100 | 100 | 100 |  |  |  |  |  |  | 
13 | O=C(NCC(F)(F)c1ncc(-c2ccccc2)cc1Cl)c1ccccc1C(F)(F)F [Example 5] |  | 100 |  | 90 | 3.75 | ≥ 60 | ≥ 60 |  |  |  | 100
14 | O=C(NCC(F)(F)c1ncc(-c2cccc(Cl)c2)cc1Cl)c1ccccc1C(F)(F)F [Example 3] |  | 100 |  |  | 4.17 | ≥ 60 | ≥ 60 |  |  |  | 100
15 | O=C(NCC(F)(F)c1ncc(-c2ccc(OC(F)F)cc2)cc1Cl)c1ccccc1C(F)(F)F [Example 4] |  | 100 |  | 100 | 3.78 | ≥ 60 | ≥ 60 |  |  |  | 100
16 | O=C(NCC(F)(F)c1ncc(-c2cc(F)cc(F)c2)cc1Cl)c1ccccc1C(F)(F)F [Example 12] |  | 100 |  |  | 3.89 | ≥ 60 | ≥ 60 |  |  |  | 100
17 | CC(F)(CNC(=O)c1ccccc1C(F)(F)F)c1ncc(-c2ccc(F)cc2)cc1Cl (stereo not drawn) [Example 21, N-{2-[3-chloro-5-(4-fluorophenyl)pyridin-2-yl]-2-fluoropropyl}-2-(trifluoromethyl) benzamide] | 3.96 |  |  | 100 |  |  |  |  |  |  | 
